A short description of one data set: Whole blood stability. Particulars: 37° C., time points 0, 1, 2, 4 hr, LC/MS/MS; for half-life at 5 µM: mouse, whole blood, read-out: Whole Blood Stability (T1/2) hr. Mouse (converted). Format: in vitro ADME. The method, then: Test compounds were prepared as a 500 μM stock solution in DMSO (Adding 10 μl of 10 mM DMSO stock solution to 190 μl of 100% DMSO). Whole blood was thawed on ice. A whole blood plate was prepared by adding 460 μl of the whole blood (different species as needed) to a 96-well in ml deep well plate. The whole blood plate was preincubated at 37° C. for 10 min. 4 μl of compound solution and 396 μl of whole blood was added to the plate and mixed thoroughly. Each sample was aliquoted (30 μl) to the incubation plate (cluster tubes) and quenched at time zero with ice-cold 100% ACN, and the incubation plates were added to the 37° C. incubator (200 μl).
The time zero sample was maintained at 4° C. until centrifuged. All other samples were quench at different time points (1, 2, 4 hr), vortexed for 30 seconds and centrifuged at 3500 rpm for 15 min at 4° C. 30 μl of supernatant was added to 170 μl 0.1% FA aqueous solution and the sample was analyzes by LC/MS/MS.

In data set [1] the target is T1, KRAS G12C 1-169, his-tagged protein, GDP-loaded (Homo sapiens, UniProt P01116, G12C).
T1 construct: KRAS G12C 1-169, his-tagged protein, GDP-loaded
Kind of data set: Biochemical assay: covalent modification of KRAS G12C measured by mass spectrometry (RapidFire/TOF or Q-Exactive). The following applies: covalent binding to KRAS G12C; compounds of structure (III). A digest of the protocol:
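GDP-loaded his-tagged KRAS G12C 1-169 at 2 μM in 20 mM Hepes, 150 mM NaCl, 1 mM MgCl2 incubated at room temperature with compound (10, 30 or 100 μM final, 2% DMSO) for 30 min, 2 h or 24 h, then quenched with formic acid. Intact-protein LC-MS (RapidFire/TOF or Q-Exactive) with deconvolution quantified modified versus unmodified protein.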

Bounds are passed on as bounds.

Take `C=CC(=O)N1CCN(c2ncnc3c(F)c(-c4c(O)cccc4F)c(Cl)cc23)CC1` (atropisomer, axis not shown) [A, reference compound]: the half-life at 5 µM in the data set “Whole blood stability” is 239 min. Regarding `C=CC(=O)N1CCN(c2ncnc3c(F)c(-c4c(O)cccc4F)c(Cl)cc23)[C@@H](C)C1` (atropisomer, axis not shown) [III-23, 1-((S)-4-((R)-6-chloro-8-fluoro-7-(2-fluoro-6-hydroxy-phenyl)quinazolin-4-yl)-3-methyl-piperazin-1-yl)prop-2-en-1-one], the half-life at 5 µM in the data set “Whole blood stability” is > 720 min. Further, in data set [1], the Binding % result is recorded as “+ (+ indicates binding activity up to 50%)”. With `C=CC(=O)N1CCN(c2ncnc3c(F)c(-c4c(O)cccc4F)c(Cl)cc23)[C@@H](C)C1` (atropisomer, axis not shown) [III-24, 1-((S)-4-((S)-6-chloro-8-fluoro-7-(2-fluoro-6-hydroxy-phenyl)quinazolin-4-yl)-3-methyl-piperazin-1-yl)prop-2-en-1-one], the “Whole Blood Stability (T1/2) hr. Mouse” value in the data set “Whole blood stability” came out at 10.4 h. Further, the Binding % result in data set [1] is on record as “+++ (+++ indicates binding activity greater than 90%)”. For the compound `C=CC(=O)N1[C@H](C)CN(c2ncnc3c(F)c(-c4c(O)cccc4F)c(Cl)cc23)C[C@@H]1C` (atropisomer, axis not shown) [III-29, 1-((2S,6R)-4-((R)-6-chloro-8-fluoro-7-(2-fluoro-6-hydroxy-phenyl)quinazolin-4-yl)-2,6-dimethyl-piperazin-1-yl)prop-2-en-1-one], in “Whole blood stability”, the half-life at 5 µM was 654 min. In data set [1], the Binding % entry is on record as “+ (+ indicates binding activity up to 50%)”. Turning to `C=CC(=O)N1CCN(c2ncnc3c(F)c(-c4c(O)cccc4F)c(Cl)cc23)[C@@H](C)C1` [III-14, 1-((3S)-4-(6-chloro-8-fluoro-7-(2-fluoro-6-hydroxy-phenyl)quinazolin-4-yl)-3-methyl-piperazin-1-yl)prop-2-en-1-one], the “Whole Blood Stability (T1/2) hr. Mouse” value in the data set “Whole blood stability” was found to be 6.2 h. For the same compound, the Binding % result in data set [1] is on record as “++ (++ indicates activity from 50% to 90%)”. The like results for `C=CC(=O)N1[C@H](C)CN(c2ncnc3c(F)c(-c4c(O)cccc4F)c(Cl)cc23)C[C@@H]1C` [III-15, 1-((2S,6R)-4-(6-chloro-8-fluoro-7-(2-fluoro-6-hydroxy-phenyl)quinazolin-4-yl)-2,6-dimethyl-piperazin-1-yl)prop-2-en-1-one] were, in that order, 11.1 h and “++ (++ indicates activity from 50% to 90%)”. With `C=CC(=O)N1CCN(c2ncnc3c(F)c(-c4c(O)cccc4F)c(Cl)cc23)C(C)(C)C1` [III-17, 1-(4-(6-chloro-8-fluoro-7-(2-fluoro-6-hydroxy-phenyl)quinazolin-4-yl)-3,3-dimethyl-piperazin-1-yl)prop-2-en-1-one], in “Whole blood stability”, the half-life at 5 µM was 750 min. Besides, in data set [1], the Binding % result is reported as “++ (++ indicates activity from 50% to 90%)”. The like results for `C=CC(=O)N1[C@@H](C)CN(c2ncnc3c(F)c(-c4c(O)cccc4F)c(Cl)cc23)C[C@@H]1C` [III-18, 1-((2S,6S)-4-(6-chloro-8-fluoro-7-(2-fluoro-6-hydroxy-phenyl)quinazolin-4-yl)-2,6-dimethyl-piperazin-1-yl)prop-2-en-1-one] were, in that order, 528 min and “+ (+ indicates binding activity up to 50%)”. Consider `C=CC(=O)N1CCN(c2ncnc3c(F)c(-c4c(O)cccc4F)c(Cl)cc23)C[C@@H]1C` [III-20, 1-((2S)-4-(6-chloro-8-fluoro-7-(2-fluoro-6-hydroxy-phenyl)quinazolin-4-yl)-2-methyl-piperazin-1-yl)prop-2-en-1-one], for which, in the data set “Whole blood stability”, the half-life at 5 µM was 636 min. For the same compound, the Binding % entry in data set [1] is reported as “++ (++ indicates activity from 50% to 90%)”. The corresponding values for `C=CC(=O)N1CCN(c2ncnc3c(F)c(-c4c(O)cccc4F)c(Cl)cc23)C[C@H]1C` [III-21, 1-((2R)-4-(6-chloro-8-fluoro-7-(2-fluoro-6-hydroxy-phenyl)quinazolin-4-yl)-2-methyl-piperazin-1-yl)prop-2-en-1-one] are > 720 min and “++ (++ indicates activity from 50% to 90%)”. As to `C=CC(=O)N1[C@H](C)CN(c2ncnc3c(F)c(-c4c(O)cccc4F)c(Cl)cc23)C[C@H]1C` [III-22, 1-((2R,6R)-4-(6-chloro-8-fluoro-7-(2-fluoro-6-hydroxy-phenyl)quinazolin-4-yl)-2,6-dimethyl-piperazin-1-yl)prop-2-en-1-one], in “Whole blood stability”, the half-life at 5 µM is > 720 min. Also, in data set [1], the Binding % result is reported as “+ (+ indicates binding activity up to 50%)”. The like results for `C=CC(=O)N1C[C@H](C)N(c2ncnc3c(F)c(-c4c(O)cccc4F)c(Cl)cc23)[C@@H](C)C1` [III-37, 1-((3S,5S)-4-(6-chloro-8-fluoro-7-(2-fluoro-6-hydroxy-phenyl)quinazolin-4-yl)-3,5-dimethyl-piperazin-1-yl)prop-2-en-1-one] were, in that order, 594 min and “++ (++ indicates activity from 50% to 90%)”. Consider `C=CC(=O)N1CCN(c2ncnc3c(F)c(-c4c(O)cccc4F)c(Cl)cc23)[C@@H](CO)C1` [III-39, 1-((3R)-4-(6-chloro-8-fluoro-7-(2-fluoro-6-hydroxy-phenyl)quinazolin-4-yl)-3-(hydroxy-methyl)piperazin-1-yl)prop-2-en-1-one], for which the Binding % result in data set [1] is “+ (+ indicates binding activity up to 50%)”.

As for `C=CC(=O)N1C[C@@H](C)N(c2ncnc3c(F)c(-c4c(C)ccc5[nH]ncc45)c(Cl)cc23)[C@@H](C)C1` [III-40, 1-((3S,5R)-4-(6-chloro-8-fluoro-7-(5-methyl-1H-indazol-4-yl)quinazolin-4-yl)-3,5-dimethyl-piperazin-1-yl)prop-2-en-1-one], in data set [1], the Binding % entry is given as “++ (++ indicates activity from 50% to 90%)”. `C=CC(=O)N1C[C@@H](C)N(c2ncnc3c(F)c(-c4cc(O)cc5ccccc45)c(Cl)cc23)[C@@H](C)C1` [III-41, 1-((3S,5R)-4-(6-chloro-8-fluoro-7-(3-hydroxy-naphthalen-1-yl)quinazolin-4-yl)-3,5-dimethyl-piperazin-1-yl)prop-2-en-1-one]: the Binding % entry in data set [1] is recorded as “++ (++ indicates activity from 50% to 90%)”.

Consider `C=CC(=O)N1C[C@@H](C)N(c2ncnc3c(F)c(-c4c(C)ccc5cn[nH]c45)c(Cl)cc23)[C@@H](C)C1` [III-42, 1-((3S,5R)-4-(6-chloro-8-fluoro-7-(6-methyl-1H-indazol-7-yl)quinazolin-4-yl)-3,5-dimethyl-piperazin-1-yl)prop-2-en-1-one], for which the Binding % result in data set [1] is “++ (++ indicates activity from 50% to 90%)”. For `C=CC(=O)N1[C@H](C)CN(c2c(C#N)cnc3c(F)c(-c4c(O)cccc4F)c(Cl)cc23)C[C@@H]1C` [III-43], the Binding % result in data set [1] is recorded as “++ (++ indicates activity from 50% to 90%)”.
